Results on 7 molecules are retold here after patent USH25H, “Thiophosphoryl triamide as a urease inhibitor” (Tennessee Valley Authority, priority 1985, dated 1986).

SMILES strings stand for the structures.

In test [1] the test system is urease. The settings on record: literature and earlier patents; cited from earlier work.
Test [2] concerns soil urease (Crowley silt loam). Nature of the test: Well-mixed inhibitor-soil incubation test, urea added at intervals (modified Douglass and Bremner procedure). It counts as biochemical. Particulars: for Percent urea unhydrolyzed (higher = more urease inhibition): 7 micromoles per 120 g Crowley soil, 30° C., 16 hours with urea. The procedure:
Test compounds in Example II, infra, were evaluated in soil systems by a modification of the Douglass and Bremner procedure [L. A. Douglass and J. W. Bremner, Soil Biol. Biochem. 3, 309-315 (1971)] in which solutions or suspensions of the test compounds were mixed throughout the soil. Then at selected time intervals urea was added to the soil-inhibitor mixtures. The advantage of this procedure is that soil urease inhibition by the test compounds can be detected for time periods lasting up to several weeks or longer.
(§1) Specifics of the procedure for evaluating the test compounds in Example II were the following. Urease-active soil (Crowley silt loam from Louisiana) was moistened to a moisture content of 16% (dry weight basis) and preincubated at room temperature for two days. One milliliter of solution or suspension containing 7 micromoles of each test compound was added to 120 g of moist soil and mixed well. Polyvinylchloride cylinders 12-cm long and 4 cm in diameter were filled with the inhibitor-soil mixtures, packed to a bulk density of about 0.9 g/cm^3, and covered with a perforated plastic film. […] At each time interval, 1 ml of urea solution containing 50 mg of urea was mixed well with the inhibitor-soil mixture from a single column. The urea-inhibitor-soil mixture was packed in a column to a bulk density of about 0.9 g/cm^3, covered with a perforated plastic film, and reincubated for 16 hours at 30° C. Following the 16 hours of reincubation, about 120 g of the urea-inhibitor-soil mixture was extracted with 250 ml of 2 M KCl containing 5 ppm of […]. The KCl-PPDA extracts were analyzed on the Auto Analyzer II [Technicon method No. 40001 FD4, Technicon, Tarrytown, N.Y., U.S.A. (1974)]. Three replicates were used on all treatments and checks.
as §1, with “are as follows.” for “were the following.”, “New York,” for “N.Y.,”, “checks. Two groups of compounds were tested as indicated in Table IV as Test Series I and Test Series II.” for “checks.”

The subject of test [3] is soil urease (Hastings silt loam). Nature of the test: Urea hydrolysis in bands of urea plus inhibitor in soil (banded soil system). It counts as biochemical. The settings on record: for % inhibition, as measured by percent urea unhydrolyzed: 41 mg inhibitor + 410 mg urea per band, Hastings silt loam, 25° C. The text has this: Another advantage of the banded configuration compared with mixing throughout the soil is that slightly soluble test compounds can be easily band applied, whereas it is difficult to achieve a known degree of mixing of a small quantity of slightly soluble test compound with soil. The banded configuration also enables testing for urease inhibition under realistic soil conditions prior to the development of techniques for cogranulating a wide range of test compounds with urea. […] Urease-active soil (Hastings silt loam) was moistened to a moisture content of 20% (dry weight basis) and preincubated at room temperature for two days. Plexiglas containers (6×6×6 -cm) were one-half filled with soil and packed to a bulk density of 1.1 g/cm^3. Urea or urea plus inhibitor (thoroughly mixed) was distributed in a narrow band 6-cm long on the soil surface. The containers then were filled with soil, again packing to a bulk density of 1.1 g/cm^3. The containers were incubated at 25° C. for the desired reaction period, after which the containers were frozen to about -5° C. to stop urea hydrolysis. Immediately prior to extracting the remaining urea from the soil, said soil was allowed to thaw. Soil from each container was thoroughly mixed, and a 10-g sample was extracted with 100 ml of 2 M KCl containing phenylmercuric acetate to prevent urea hydrolysis during handling [L. A. Douglass and J. M. Bremner, Soil Sci. Soc. Am.
Urease-active soil (Hastings silt loam) was moistened to a moisture content of 20% and preincubated at room temperature for two days. Plexiglas containers (6×6×6 cm) were one-half filled with soil and packed to a bulk density of 1.1 g/cm^3. Urea or urea plus inhibitor (thoroughly mixed) was distributed in a narrow band 6-cm long on the surface of the soil. The containers then were filled with soil and again packed to a bulk density of 1.1 g/cm^3. The containers were incubated at 25° C. for the desired reaction period. The soil from each container was thoroughly mixed, and a 10-g sample was extracted with 100 ml of 2 M KCl containing 5 ppm phenylmercuric acetate to prevent urea hydrolysis during handling [L. A. Douglass and J. M. Bremner, Soil Sci. Soc. Am. […] The urea in the extracts was determined colorimetrically as a measure of the unhydrolyzed urea.

In test [4] the test system is urease. The settings on record: IFDC, unpublished results; cited from earlier work.
[5] abbreviates: Test Series I, inhibitor incubation 0 days.
Where [6] appears, read: Test Series I, inhibitor incubation 3 days.
Where [7] appears, read: Test Series I, inhibitor incubation 7 days.
The mark [8] stands for this setting: Test Series I, inhibitor incubation 14 days.
[9] abbreviates: Test Series I, inhibitor incubation 21 days.
Where [10] appears, read: Test Series I, inhibitor incubation 35 days.
The mark [11] stands for this setting: Test Series II, inhibitor incubation 0 days.
Where [12] appears, read: Test Series II, inhibitor incubation 7 days.
Setting [13] is: Test Series II, inhibitor incubation 15 days.
Setting [14] is: Test Series II, inhibitor incubation 21 days.

Regarding `NP(N)(=O)Oc1ccccc1` [PPDA, Phenyl phosphorodiamidate], the “urease inhibition (in words) reported by previous workers” value (shortened to “urease inhibition (in words) reported”) in test [1] is “extremely potent inhibitor of urease activity”. The “Percent urea unhydrolyzed (higher = more urease inhibition)” value was found to be 100% in test [2] (setting [5]); 65% in test [2] (setting [6]); 59% in test [2] (setting [7]); 33% in test [2] (setting [8]); 13% in test [2] (setting [9]); 2% in test [2] (setting [10]). The “Percent urea unhydrolyzed (higher = more urease inhibition)” value worked out at 89% in test [2] (setting [11]), 38% in test [2] (setting [12]), 37% in test [2] (setting [13]) and 11% in test [2] (setting [14]). Further, the “% inhibition, as measured by percent urea unhydrolyzed” value in test [3] (Test Series I, 3 days) is listed as 62.6%; in test [3] (Test Series I, 6 days) it was 10.1%; in test [3] (Test Series II, 0 days), 96.4%; in test [3] (Test Series II, 3 days), 90.3%; in test [3] (Test Series II, 6 days) it was 58.2%. Moreover, the “type of urease inhibition” value in test [4] was “competitive inhibition”.
For the molecule `NP(N)(N)=O` [PTA, Phosphoryl triamide], in test [1], the “urease inhibition (in words) reported” value is given as “powerful urease inhibitors”. Also, the “% inhibition, as measured by percent urea unhydrolyzed” value in test [3] (Test Series I, 3 days) worked out at 54.6%; in test [3] (Test Series I, 6 days), 2.6%.
In the case of `NP(N)(=S)Oc1ccccc1` [PTPDA, Phenylthiophosphenyl diamidate], the “urease inhibition (in words) reported” value in test [1] was “less effective as an inhibitor”. In addition, the “Percent urea unhydrolyzed (higher = more urease inhibition)” value in test [2] (setting [11]) amounted to 56%; in test [2] (setting [12]), 21%; in test [2] (setting [13]), 24%; in test [2] (setting [14]), 2%. Moreover, the “% inhibition, as measured by percent urea unhydrolyzed” value in test [3] (Test Series II, 0 days) worked out at 100.0%; in test [3] (Test Series II, 3 days), 97.2%; in test [3] (Test Series II, 6 days), 65.7%.
Take `NP(N)(N)=S` [TPTA, Thiophosphoryl triamide]: in test [1], the “urease inhibition (in words) reported” value is “ineffective as a urease inhibitor”. The “Percent urea unhydrolyzed (higher = more urease inhibition)” value in test [2] (setting [5]) was found to be 59%; in test [2] (setting [6]) it was 54%; in test [2] (setting [7]) it was 54%; in test [2] (setting [8]), 19%; in test [2] (setting [9]), 27%; in test [2] (setting [10]), 2%. Also, the “Percent urea unhydrolyzed (higher = more urease inhibition)” value in test [2] (setting [11]) is recorded as 47%; in test [2] (setting [12]), 13%; in test [2] (setting [13]), 37%; in test [2] (setting [14]) it was 18%. Besides, in test [2] (up to 21 days incubation, Table IV, FIGS. 3 and 4), the “urease inhibitory activity remaining after long inhibitor incubation (in words)” value was “superior”. Also, the “effectiveness as an inhibitor of soil urease activity compared with PPDA (in words)” value in test [3] (Table III, FIGS. 1 and 2, three-day and six-day tests) was “superior to PPDA”. Further, the “% inhibition, as measured by percent urea unhydrolyzed” value in test [3] (Test Series I, 3 days) is 71.7%; in test [3] (Test Series I, 6 days), 34.9%; in test [3] (Test Series II, 0 days), 100.0%; in test [3] (Test Series II, 3 days) it was 88.0%; in test [3] (Test Series II, 6 days), 61.1%.
Take `NP(N)(=O)O` [diamidophosphoric acid]: the “urease inhibition (in words) reported” value in test [1] is given as “effective urease inhibitors”.
For the molecule `Oc1ccc(O)cc1` [hydroquinone], the “type of urease inhibition” value in test [4] is listed as “mixed inhibition mechanism”.
In the case of `NP(=O)(O)O` [monoamidophosphoric acid], the “urease inhibition (in words) reported” value in test [1] is given as “effective urease inhibitors”.
